Results taken from patent US20130252930A1 (BIOMARIN PHARMACEUTICAL INC., priority 2010, published 2013).
Read-outs that look alike come from different tables or passages of the source.

Tests used:
[1] = target: T1, CYP17 (human testicular microsome) (Homo sapiens, UniProt P05093); assay: CYP17 enzymatic assay (% inhibition at 1 nM) (Biological Example 12); assay type: biochemical; settings: compound at 1 nM
T1 construct: using microsomal fraction from human testis (Celsis Cat #S00110) as the enzyme source; tissue Celsis S00110; host or cells: human testis microsomal fraction
T1 sequence (P05093 1-508): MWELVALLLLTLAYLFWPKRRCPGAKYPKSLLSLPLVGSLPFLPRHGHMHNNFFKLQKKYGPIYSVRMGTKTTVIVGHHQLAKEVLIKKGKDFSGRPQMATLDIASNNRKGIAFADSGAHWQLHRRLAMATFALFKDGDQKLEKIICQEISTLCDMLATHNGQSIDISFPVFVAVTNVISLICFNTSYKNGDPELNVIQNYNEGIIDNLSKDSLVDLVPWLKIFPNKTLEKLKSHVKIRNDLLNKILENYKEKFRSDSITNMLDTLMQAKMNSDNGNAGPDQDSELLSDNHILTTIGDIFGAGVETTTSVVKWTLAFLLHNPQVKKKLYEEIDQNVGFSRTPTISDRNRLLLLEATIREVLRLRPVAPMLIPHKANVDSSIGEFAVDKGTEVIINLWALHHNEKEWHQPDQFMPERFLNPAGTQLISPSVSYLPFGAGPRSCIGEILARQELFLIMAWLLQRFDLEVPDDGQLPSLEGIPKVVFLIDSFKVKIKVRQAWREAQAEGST

[2] = target: T1, CYP17 (human testicular microsome); assay: CYP17 enzymatic assay (IC50) (Biological Example 4); assay type: biochemical; settings: human testicular microsome
[3] = Human liver microsome stability assay (Biological Example 8b); settings: liver microsomes, pH 7.4
Description: The reaction was started with addition of excess NADPH (5 mg/mL, 15 μL in 0.1 M potassium phosphate buffer, 1.0 mM EDTA, pH 7.4), the total volume is 45 μL (compound final concentration was 1 μM). […] 50 μL of the supernatant was transferred from each well into a 96-well sample plate containing 50 μL of ultra-pure water (Millipore) for LC-MS/MS analysis.

CYP17 (H295R cells) = target: T2, CYP17 (H295R cells) (Homo sapiens, UniProt P05093); assay: CYP17 cellular assay (IC50), testosterone in H295R cells (Biological Example 7); assay type: cell-based; settings: H295R cells, testosterone
T2 construct: endogenous in cells; host or cells: H295R cells
T2 sequence (P05093 1-508): T1 sequence (P05093 1-508)
Description: The assays were performed in 96-well plates. Typically H295R cells were seeded at 4.5×10^4 cells/well in 100 μL Growth Medium containing DMEM/F-12 (Gibco/Invitrogen; 11330-032), 2.5% Nu-Serum (BD Bioscience; 355100) and ITS (BD Bioscience; 354352), and cultured at 37° C., 5% CO2 for 24 hr. The next day, media were carefully removed and cells were washed twice with 200 μL 1×HBSS++. Test compounds were then added to the cells at 100, 10, 1, 0.1 nM final concentrations in 125 μL volume per well in serum-free media containing DMEM/F-12 and ITS+ Premix (BD Bioscience; 354352) with 0.1% methanol. Serum-free media with 0.1% methanol without test compound was used as control. Cells were incubated with compounds at 37° C. for additional 24 hours, and the cultured media from each compound treated well was harvested for measurement of testosterone concentration by ELISA according to manufacturer's instruction (Assay Design). Testosterone concentration of each sample was plotted vs. the concentration of the test compounds.

[4] = read-out: Biological Example No. 12: CYP17 enzymatic assay % inhibition at 1 nM
[5] = read-out: Biological Example No. 4: CYP17 enzymatic assay IC50
[6] = read-out: Biological Example No. 7: CYP17 cellular assay IC50
[7] = read-out: CYP17 enzymatic assay % inhibition at 1 nM (Biological Example No. 12)
[8] = read-out: CYP17 cellular assay IC50 (Biological Example No. 7)

C[C@]12CC[C@H]3[C@@H](CC4CC45C[C@@H](O)CC[C@]35C)[C@@H]1CC=C2c1cccnc1 (single isomer, unassigned) [Compound 317]
inhibition at 0.001 µM [1, 4]: > 50%
IC50 [2, 5]: < 11 nM
half-life at 1 μM [3]: 1 to 50 min
IC50 (CYP17 (H295R cells); [6]): < 15 nM

CC(=O)N[C@@H]1CC[C@@]2(C)C(CCC3C2CC[C@]2(C)C(c4cnccc4C)=CCC32)C1 (stereo partly drawn) [Compound 21, N-((3R,10S,13S)-10,13-dimethyl-17-(4-methylpyridin-3-yl)-2,3,4,5,6,7,8,9,10,11,12,13,14,15-tetradecahydro-1H-cyclopenta[a]phenanthren-3-yl)acetamide]
inhibition at 0.001 µM [1, 7]: > 50%
half-life at 1 μM [3]: 1 to 50 min
IC50 (CYP17 (H295R cells); [8]): < 15 nM

Cc1ccncc1C1=CC=C2[C@@H]3CC=C4C[C@@H](O)CC[C@]4(C)[C@H]3CC[C@]12C [Compound 190, (3S,10R,13S)-10,13-dimethyl-17-(4-methylpyridin-3-yl)-2,3,4,7,8,9,10,11,12,13-decahydro-1H-cyclopenta[a]phenanthren-3-ol]
inhibition at 0.001 µM [1, 7]: > 50%
half-life at 1 μM [3]: 1 to 50 min
IC50 (CYP17 (H295R cells); [8]): 15 to 100 nM

CC(C)C(=O)N[C@@H]1CC[C@@]2(C)C(CCC3C2CC[C@]2(C)C(c4cccnc4)=CCC32)C1 (stereo partly drawn) [Compound 216, N-((3R,10S,13S)-10,13-dimethyl-17-(pyridin-3-yl)-2,3,4,5,6,7,8,9,10,11,12,13,14,15-tetradecahydro-1H-cyclopenta[a]phenanthren-3-yl)isobutyramide]
inhibition at 0.001 µM [1, 7]: > 50%
half-life at 1 μM [3]: 1 to 50 min
IC50 (CYP17 (H295R cells); [8]): < 15 nM

CC(=O)N[C@@H]1CC[C@@]2(C)C(=CCC3C2CC[C@]2(C)C(c4cccnc4)=CCC32)C1 (stereo partly drawn) [Compound 223, N-((3R,10R,13S)-10,13-dimethyl-17-(pyridin-3-yl)-2,3,4,7,8,9,10,11,12,13,14,15-dodecahydro-1H-cyclopenta[a]phenanthren-3-yl)acetamide]
inhibition at 0.001 µM [1, 7]: > 50%
IC50 ([2]; read-out: CYP17 enzymatic assay IC50 (Biological Example No. 4)): < 11 nM
half-life at 1 μM [3]: 1 to 50 min
IC50 (CYP17 (H295R cells); [8]): < 15 nM

CC(=O)N[C@@H]1CC[C@@]2(C)C(=CCC3C4=CC=C(c5cccnc5)[C@@]4(C)CCC32)C1 (stereo partly drawn) [Compound 243, N-((3R,10R,13S)-10,13-dimethyl-17-(pyridin-3-yl)-2,3,4,7,8,9,10,11,12,13-decahydro-1H-cyclopenta[a]phenanthren-3-yl)acetamide]
inhibition at 0.001 µM [1, 7]: > 50%
half-life at 1 μM [3]: 1 to 50 min
IC50 (CYP17 (H295R cells); [8]): < 15 nM

C[C@]1(O)CC[C@@]2(C)C(CCC3C2CC[C@]2(C)C(c4cncc(F)c4)=CCC32)C1 (stereo partly drawn) [Compound 264, (3S,10S,13S)-17-(5-fluoropyridin-3-yl)-3,10,13-trimethyl-2,3,4,5,6,7,8,9,10,11,12,13,14,15-tetradecahydro-1H-cyclopenta[a]phenanthren-3-ol]
IC50 [2, 5]: < 11 nM
half-life at 1 μM [3]: 1 to 50 min
IC50 (CYP17 (H295R cells); [6]): < 15 nM

C[C@]12CC[C@H]3[C@@H](CC=C4C[C@@H](O)CC[C@@]43C)C1=CC=C2c1cncc(F)c1 [Compound 271, (3S,10R,13S)-17-(5-fluoropyridin-3-yl)-10,13-dimethyl-2,3,4,7,8,9,10,11,12,13-decahydro-1H-cyclopenta[a]phenanthren-3-ol]
inhibition at 0.001 µM [1, 4]: > 50%
IC50 [2, 5]: < 11 nM
half-life at 1 μM [3]: 1 to 50 min
IC50 (CYP17 (H295R cells); [6]): < 15 nM

C[C@]12CC[C@H](O)CC1=CCC1C2CC[C@]2(C)C(c3cncc(C(F)F)c3)=CCC12 (stereo partly drawn) [Compound 279, (3S,10R,13S)-17-(5-(difluoromethyl)pyridin-3-yl)-10,13-dimethyl-2,3,4,7,8,9,10,11,12,13,14,15-dodecahydro-1H-cyclopenta[a]phenanthren-3-ol]
inhibition at 0.001 µM [1, 4]: > 50%
IC50 [2, 5]: < 11 nM
half-life at 1 μM [3]: > 50 min
IC50 (CYP17 (H295R cells); [6]): < 15 nM

C[C@]12CCC3C(CC(F)C4(O)C[C@@H](O)CC[C@]34C)C1CC=C2c1cncc(F)c1 (stereo partly drawn) [Compound 321, (3S,10R,13S)-6-fluoro-17-(5-fluoropyridin-3-yl)-10,13-dimethyl-2,3,4,5,6,7,8,9,10,11,12,13,14,15-tetradecahydro-1H-cyclopenta[a]phenanthrene-3,5-diol]
inhibition at 0.001 µM [1, 4]: > 50%
IC50 [2, 5]: < 11 nM
half-life at 1 μM [3]: 1 to 50 min
IC50 (CYP17 (H295R cells); [6]): < 15 nM

C[C@]12CCC(=O)C=C1C1CC1[C@@H]1[C@@H]2CC[C@]2(C)C(c3cncc(F)c3)=CC[C@@H]12 (stereo partly drawn) [Compound 330, (4aR,6aS)-7-(5-fluoropyridin-3-yl)-4a,6a-dimethyl-4,4a,4b,5,6,6a,9,9a,9b,9c,10,10a-dodecahydrocyclopenta[a]cyclopropa[l]phenanthren-2(3H)-one]
inhibition at 0.001 µM [1, 4]: > 50%
IC50 [2, 5]: < 11 nM
half-life at 1 μM [3]: 1 to 50 min
IC50 (CYP17 (H295R cells); [6]): < 15 nM

C[C@]12CCNC(=O)C=C1CCC1C2CC[C@]2(C)C(c3cncc(C(F)F)c3)=CCC12 (stereo partly drawn) [Compound 386, (5aR,7aS)-8-(5-(difluoromethyl)pyridin-3-yl)-5a,7a-dimethyl-3,4,5,5a,5b,6,7,7a,10,10a,11,12-dodecahydrocyclopenta[5,6]naphtho[1,2-d]azepin-2(10bH)-one]
inhibition at 0.001 µM [1, 4]: > 50%
IC50 [2, 5]: < 11 nM
half-life at 1 μM [3]: 1 to 50 min
IC50 (CYP17 (H295R cells); [6]): < 15 nM

C[C@]12CC(O)CC1CCC1C2CC[C@]2(C)C(c3cncc(F)c3)=CCC12 (stereo partly drawn) [Compound 398, (3aS,5aS)-6-(5-fluoropyridin-3-yl)-3a,5a-dimethyl-1,2,3,3a,3b,4,5,5a,8,8a,8b,9,10,10a-tetradecahydrodicyclopenta[a,f]naphthalen-2-ol]
inhibition at 0.001 µM [1, 4]: 10 to 50%
IC50 [2, 5]: < 11 nM
half-life at 1 μM [3]: > 50 min
IC50 (CYP17 (H295R cells); [6]): < 15 nM

C[C@]12CC(O)CC1CCC1C2CC[C@]2(C)C(c3cccnc3)=CCC12 (stereo partly drawn) [Compound 399, (3aS,5aS)-3a,5a-dimethyl-6-(pyridin-3-yl)-1,2,3,3a,3b,4,5,5a,8,8a,8b,9,10,10a-tetradecahydrodicyclopenta[a,f]naphthalen-2-ol]
inhibition at 0.001 µM [1, 4]: > 50%
IC50 [2, 5]: < 11 nM
half-life at 1 μM [3]: 1 to 50 min
IC50 (CYP17 (H295R cells); [6]): < 15 nM

C[C@]12CCC(F)CC1=CC[C@@H]1[C@@H]2CC[C@]2(C)C(c3cncc(F)c3)=CC[C@@H]12 (stereo partly drawn) [Compound 401, 3-fluoro-5-((10R,13S)-3-fluoro-10,13-dimethyl-2,3,4,7,8,9,10,11,12,13,14,15-dodecahydro-1H-cyclopenta[a]phenanthren-17-yl)pyridine]
IC50 [2, 5]: < 11 nM
half-life at 1 μM [3]: > 50 min
IC50 (CYP17 (H295R cells); [6]): < 15 nM

C[C@]12CCC(=O)C=C1C=CC1C2CC[C@]2(C)C(c3cncc(F)c3)=CCC12 (stereo partly drawn) [Compound 409, (10R,13S)-17-(5-fluoropyridin-3-yl)-10,13-dimethyl-8,9,10,11,12,13,14,15-octahydro-1H-cyclopenta[a]phenanthren-3(2H)-one]
inhibition at 0.001 µM [1, 4]: > 50%
IC50 [2, 5]: < 11 nM
half-life at 1 μM [3]: 1 to 50 min
IC50 (CYP17 (H295R cells); [6]): < 15 nM
